Results from patent publication US10927136B2, “Phosphorus prodrugs of pyrazolo-substituted pyrimidine sGC stimulators” (Cyclerion Therapeutics, Inc., priority 2016, dated 2021).

Key:
[1] = Rat PK following intravenous and oral dosing; type: in vivo, male Sprague-Dawley rats
Method: PK in rats was determined following intravenous and oral dosing.
For the intravenous (IV) and oral (PO) experiments, two groups of 4 male Sprague-Dawley rats each were used. The PO group was dosed with 3.0 mg/kg of Compound I-1 formulated as a solution in phosphate buffered saline (PBS). The IV group was dosed with 1.0 mg/kg of Compound I-1 formulated as a solution in phosphate buffered saline (PBS). IV doses were administered through an indwelling catheter in the jugular vein. Following dose administration, the catheter was flushed with ca. 0.25 mL of saline. PO doses were delivered to the stomach using a syringe and gavage tube. Following oral dosage administration, the gavage tube was flushed with approximately 0.5 mL of water to ensure complete delivery of the full dose.
Plasma samples were collected as follows: for the IV and PO experiments, samples were collected at 5 min, 15 min, 30 min, 1 hour, 2 hours, 4 hours, 6 hours, 8 hours, 12 hours, 16 hours, 20 hours and 24 hours, post-dosing. Blood samples (0.25 mL) were collected from the jugular vein. These samples were kept on ice until processed for plasma. Blood samples were centrifuged at 3200 rpm for 5 minutes at approximately 5° C. within 1 hour of collection. Plasma was directly transferred to a 96-well plate tube (0.125 mL). Plug caps were placed on the tubes and the tubes frozen at approximately −70° C. and stored until analysis.
Plasma was collected and analyzed for the presence of Compound I-1 and Intermediate 3 derived from Compound I-1.
Intermediate 3, Compound I-1 and the internal standard (IS, Compound Z) were extracted from plasma by precipitation. Samples were analyzed using liquid chromatography (LC) with tandem mass spectrometric detection (MS/MS) using electrospray ionization. The standard curve range was from 0.1 to 400 ng/mL.
Thawed plasma samples and the required amount of plasma for standards, blanks and dilutions. Prepared crash solution: room temp ACN containing 1 ng/mL Compound Z as Internal Standard. Created a 1× mixed (Intermediate 3 and Compound I-1) standard curve by diluting the 100× stocks (5 uL of each 100× standard into 495 uL of plasma). Transferred 50 uL of each plasma sample/dilution, standard, or blank. Added 200 uL of the crash solution containing IS. Vortexed for 5 minutes. Centrifuged at 16,000 g at room temperature for 10 min. Transferred 200 uL of each supernatant to a plate. Dried under nitrogen in a TurboVap at 55° C. Re-suspended each sample in 50 uL of 0.1% Formic Acid, covered and vortexed. Analyzed by LC-MSMS.

[2] = Ex-vivo rat intestinal fluid stability assay; type: in vitro ADME; design: half-life: dose or concentration left out as unconfirmed; details: 37° C.; for prodrug converted into its parent drug / cleaved: after 60 minutes of incubation; for half-life: rat intestinal (jejunum) fluid, read-out: disappearance half-life (T1/2)
Method: Phosphate prodrugs disclosed herein were designed to be cleaved by alkaline phosphatase(s) that are present on the apical brush-border membranes of the intestine, after which the more hydrophobic parent compound is readily absorbed. Phosphatases are also present in the liver and in the systemic circulation. In order to test the speed of cleavage of the prodrug into the parent drug, […] solutions of each of the test compounds were incubated in rat intestinal (jejunum) fluid. Samples were taken at times=0, 5, 15, 30 and 60 min and the mixtures were quenched by the addition of acetonitrile containing an internal standard. Samples were analyzed by full scan LC/MS. The following protocol was used:
10 mM DMSO stock solutions were thawed or prepared for the positive control (Enalapril) and each test article. Internal standard (IS) crash solution in acetonitrile (ACN) with 20 ng/ml of Compound Z, depicted below, was prepared. Stock (250 uM) was prepared from 10 mM in 50/50 acetonitrile/H2O. Rat intestinal fluid vials were thawed in a water bath at rt.
In a 96-well, 1 ml plate, 48 uL of rat intestinal fluid was aliquoted in triplicate for each time point. The t0 (“0 min”) time point was prepared separately by adding 450 ul of IS crash solution to 48 ul of intestinal fluid, then adding 2 uL of test compound. 2 ul of the 250 uM substock was added to initiate the reaction at 5 min, 15 min, 30 min, and 60 min. The plate prepared in the above steps was covered with a plastic or foil seal and was set in the 37° C. incubator, lightly shaking. For each time point, 450 ul of IS crash solution was added to quench the reaction. The plates were centrifuged at 4000 RPM for 10 minutes at 4° C. 50 ul of supernatant was transferred into 50 ul of H2O and analyzed using LC/MS.
The disappearance of the prodrug and the conversion to the parent were monitored over time.

[3] = male, Sprague-Dawley, plasma, Compound I-1 1 mg/kg IV in PBS, analyte Compound I-1

prodrug in plasma samples ([1]; following PO dosing of Compound I-1 3.0 mg/kg)	AUC(0-inf) [1, 3] [µg·h/mL]	Cmax [1, 3] [µg/mL]	clearance [1, 3] [L/h/kg]	half-life ([1]; male, Sprague-Dawley, plasma, iv, 1 mg/kg, Compound I-1 1 mg/kg IV in PBS, analyte Compound I-1) [min]	prodrug converted into its parent drug ([2]; after 30 minutes of incubation)	prodrug converted into its parent drug / cleaved [2]	half-life [2] [min]	Compound
not observed in any plasma samples	0.549	2.78 ± 2.45	2.06	~9	About 80%	about 95%	16	O=P(O)(O)OC(CNc1nc(-c2cc(-c3ccon3)n(Cc3ccccc3F)n2)ncc1F)(C(F)(F)F)C(F)(F)F [Compound I-1]
						More than 99%	9	O=P(O)(O)OCOC(CNc1nc(-c2cc(-c3ccon3)n(Cc3ccccc3F)n2)ncc1F)(C(F)(F)F)C(F)(F)F [Compound I-4]
